From US12329755B2, “Bromodomain inhibitors to target therapy-resistant cancer” (University of Tennessee Research Foundation, priority 2019, dated 2025)

Experiments:
[1] = system: LN229 TMZ-resistant glioma cell line; assay: IncuCyte live cell imaging proliferation assay; type: cell-based
Description: (§1) FIG. 2A is a graph showing relative growth of temozolomide (TMZ)-resistant glioma cells (LN229 cells) alone (control); after treatment with 100 micromolar (μM) TMZ; after treatment with a Brahma-related gene-1 bromodomain inhibitor (BRI), PFI-3 (1 μM); or after treatment with both TMZ and PFI-3 (combined).
as §1, with “2B” for “2A”, “IV-073” for “PFI-3”
as §1, with “2C” for “2A”, “LN229 Temozolomide” for “temozolomide”, “cells” for “cells (LN229 cells)”, “IV-077” for “PFI-3”
as §1, with “2D” for “2A”, “LN229 Temozolomide” for “temozolomide”, “cells” for “cells (LN229 cells)”, “IV-085” for “PFI-3”
To determine whether PFI-3 (also called YH-IV-081) and its analogs (referred to herein as “PAs”) enhanced TMZ sensitivity IncuCyte live cell imaging proliferation assays (high throughput system) were performed with the LN229 TMZ-resistant glioma cell line.

bromodomain of BRG1 = biological target: T1, bromodomain of BRG1 (Homo sapiens, UniProt P51532); assay: thermal shift assay of the BRG1 bromodomain in MT330 GBM cells; type: binding; settings: 44.5° C. to 55.6° C.; PFI-3 30 μM, IV-073 20 μM, two hours; compared to DMSO
T1 construct: The assay involved the use of the bromodomain of BRG1 in MT330 GBM cells; expressed in transfected cells; host or cells: MT330 GBM cells
T1 sequence (P51532 1453-1564 limits assumed): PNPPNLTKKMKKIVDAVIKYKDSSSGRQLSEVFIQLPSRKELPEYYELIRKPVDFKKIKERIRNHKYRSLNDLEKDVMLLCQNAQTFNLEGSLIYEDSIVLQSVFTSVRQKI
Description: FIG. 3 is a series of immunoblot images showing the effects of Brahma-related gene-1 bromodomain inhibitors (BRIs) on the stability of the bromodomain of Brahma-related gene-1 in a thermal assay shift of the bromodomain in glioblastoma cells over a temperature range from 44.5 degrees Celsius (° C.) to 55.6° C. Cells were treated with (middle) PFI-3 (30 micromolar (μM)) for two hours or (right), a PFI-3 analog of the presently disclosed subject matter (IV-073) (20 μM) for two hours. For comparison, control cells treated with dimethyl sulfoxide (DMSO) are shown at […].
To further study the activity of the presently disclosed PFI-3 analogs, a thermal shift assay was employed. The assay involved the use of the bromodomain of BRG1 in MT330 GBM cells at temperatures ranging from 44.5° C. to 55.6° C.

X16 BTICs = assay: cell proliferation of X16 BTICs; type: cell-based, human; settings: PFI-3 alone
Description: FIG. 1A is a pair of graphs showing the effect of temozolomide (TMZ) on the proliferation of brain-tumor initiating cells (BTICs) obtained from two independent glioblastoma tumors, GBM6 (left) and X16 (right). Relative proliferation is shown for cells treated with 300 micromolar (μM) TMZ or 600 μM TMZ, as well as for untreated cells. *p≤0.05.
BRG1 loss sensitizes BTICs to TMZ in vitro and in vivo: Although the alkylating agent TMZ is front-line chemotherapy in the treatment of GBM, a significant clinical problem is intrinsic or adaptive resistance to TMZ.^63 To evaluate TMZ sensitivity, GBM6 or X16 BTICs were treated with 300 μM or 500 μM TMZ, and cell proliferation was determined. […] Since BRG1 has been implicated in DNA double-strand break repair,^65-67 it was hypothesized that BRG1 loss in BTICs would sensitize BTICs to TMZ. […] To determine whether BRG1-KD sensitized BTICs to TMZ in vivo, animal studies were conducted with control (scrambled shRNA) and BRG1-KD X16 BTICs injected into the flanks of NSG mice. After tumor initiation was confirmed by live animal imaging, mice were treated with TMZ. […] Thus, despite X16 BRG1-KD BTICs producing larger tumors, the tumors were sensitized to TMZ therapy. […]

For O=C(/C=C/N1C[C@H]2C[C@@H]1CN2c1ccccn1)c1ccccc1O [PFI-3, (E)-1-(2-hydroxyphenyl)-3-((1R,4R)-5-(pyridin-2-yl)-2,5-diazabicyclo[2.2.1]heptan-2-yl)prop-2-en-1-one], the “sensitization to TMZ” value ([1]; BRI 1 μM combined with 100 μM TMZ) was “potently sensitized”, the “effect on cell growth” value ([1]; BRI alone (1 μM)) was “relatively minor effects on cell growth” and the “stabilization of the BRG1 bromodomain” value (bromodomain of BRG1) was “stabilizes the BRG1 bromodomain”. For the same molecule, the “effect on BTIC proliferation” value (X16 BTICs) was “only a slight growth inhibitory effect”.
